Laboratory results taken from patent US20210121414A1, “METHOD FOR PRODUCING A PHARMACEUTICAL COMPOSITION OF POLYMERIC NANOPARTICLES FOR TREATING NEUROPATHIC PAIN CAUSED BY […] COMPRESSION” (UNIVERSIDAD DE SEVILLA, priority 2015, published 2021).

Key:
[1] = test system: Chronic constriction injury (CCI) model of mononeuropathy, mechanical hyperalgesia; experiment: Paw-pinch test of mechanical hyperalgesia in chronic constriction injury (CCI) rats after single oral administration; type: in vivo, Harlan Sprague-Dawley male albino rats; conditions: CB13 alone
Description: Harlan Sprague-Dawley male albino rats (230-350 g), provided by the University of Cádiz Animal Experimentation Unit registered under the number ES110120000210, were used. The animals were kept under standard housing conditions (21° C., 12h light-dark cycle, “ad libitum” water and food). All experiments were carried out in accordance with the ethical guidelines for working with experimental animals proposed by the International Association for the Study of Pain […] and by the Federation of Laboratory Animal Science Associations (FELASA).
Chronic constriction injury, (CCI) was used as a model of mononeuropathy since it is a model that correlates well with the symptoms presented in the patients (spontaneous pain, mechanical and thermal allodynia and hyperalgesia.
Nociceptive behavior was evaluated in the ipsi- and contralateral paw to the ligation for sciatic nerve […]. The presence of mechanical hyperalgesia was assessed by using the paw-pinch test. Thus, gradual, increasing pressure (starting with 30 g of pressure) was exerted on the rear part of the paw using a motorized device (Analgesia Meter 57215, UGO BASILE). The cut-off pressure was set at 250 g to prevent possible damage to the paw. Two measurements were taken on each paw, 5 minutes apart, and the average value was used for statistical purposes. Mechanical hyperalgesia appeared as the pressure on the paw decreased.

[2] = cited from earlier work
[3] = test system: established mechanical hyperalgesia; conditions: cited from earlier work
central nervous system = conditions: rats; cited from earlier work
[4] = cited from earlier work; remark: listed apart in the source

In the case of `CCCCCOc1ccc(C(=O)c2cccc3ccccc23)c2ccccc12` [CB13, 1-naphthalenyl[4-(pentyloxy)-1-naphthalenyl]methanone], the “anti-hyperalgesic effect 9 hours after administration” value ([1]; 9 hours) is listed as “continued to be effective but to a lesser extent”, the “anti-hyperalgesic effect after 24 hours” value ([1]; 24 hours) is listed as “its effectiveness had disappeared” and the aqueous solubility [2] is listed as 0.001-0.002 mg/m L. For the same compound, the “antihyperalgesic activity in animal models” value ([3]; animal models) was “powerful antihyperalgesic activity”, the “effect on established mechanical hyperalgesia” value ([3]; oral administration and local injection into the hind paw, pig and rat) was “reverses the established mechanical hyperalgesia” and the “dose with significant CNS effects relative to the oral dose required to reverse hyperalgesia” value (central nervous system) was 20 times. For the same compound, the “penetration into the brain” value ([4]; in vivo) was “limited penetration into the brain” and the “absorption after oral administration” value ([4]; oral) was “not completely absorbed”.
